From PubChem BioAssay AID1963833 (Molecular Pharmacology Branch, DTP, NCI, 2024)

Test system: 883617-216-R-J1-PDC complex spheroid viability
Assay: Anticancer human tumor 883617-216-R-J1-PDC patient-derived bladder carcinoma cell line growth inhibition [POLQ]
Settings: for IC50: curve of first compound; for viability, T/C: stronger effect = lower value
Description: Multicellular complex tumor spheroid response to Polymerase (POL) inhibitors (novobiocin, ART-558, RP6685) in combination with a variety of drugs and investigational agents in selected tumor cell lines
The POL inhibitors (novobiocin, ART-558, and RP6685) were evaluated both individually and in combination with standard of care and investigational anticancer small molecules within a complex spheroid model of solid tumors. . Complex spheroids include a stromal component modeled by human endothelial cells (HUVEC) and fibroblasts modeled by human mesenchymal stem cells (MSCs). The concentration ranges selected for each drug and investigational agent were based upon clinically achievable concentrations if the clinical Cmax of the agent was known.
Compounds. The drugs and investigational agents: novobiocin (NSC847541), ART-558 (NSC835418), RP-6685 (NSC848927), peposertib (NSC802822), ceralasertib (NSC780249), elimusertib (NSC800525), camonsertib (NSC841442), AZD-1390 (NSC803789), olaparib (NSC753686), talazoparib (NSC767125), rucaparib (NSC756644), sotorasib (NSC818433), MRTX-1133 (NSC836407), SN-38 (NSC673596), topotecan (NSC609699), epotoside (NSC141540), doxorubicin (NSC123127), gemcitabine (NSC613327), 5-fluorouracil (NSC19893), paclitaxel (NSC125973), vemurafenib (NSC761431), MSA-2 (NSC828583), SN-011 (NSC837082), adavosertib (NSC754352), prexasertib (NSC758257), carboplatin (NSC241240) and oxaliplatin (NSC266046), were obtained from the National Cancer Institute (NCI) Developmental Therapeutics Program Chemical Repository (21). The FDA-approved anticancer drug set is available from the Developmental Therapeutics Program at https://dtp.cancer.gov/organization/dscb/obtaining/. […] The stock solutions were prepared in dimethyl sulfoxide (DMSO, Sigma-Aldrich, St. Louis, MO, cat. D2650), except for the platinum compounds which were prepared in saline (Quality Biological, Gaithersburg, MD, cat. 114-055-101), at 800-fold the tested concentration and stored at -70 degrees C prior to their use. All drugs and investigational agents were tested over a range starting from a high concentration at or near the clinical Cmax and decreasing in half-log increments. If the clinical Cmax for an agent had not been determined, the highest concentration tested was 10 microM, except for SN-38, which was tested at a high concentration of 1 microM.
Cell Culture. All cells were maintained in an incubator at 37 degrees C and 5% CO2 with 95% humidity. The PDC lines were cultured according to standard operating procedures established by the NCI PDMR (https://pdmr.cancer.gov). Table 3 of the manuscript, lists the cell lines along with the number of the three cell types plated to form the mct-spheroids and media for tumor cell growth. After thawing, all PDC lines, except 997537-175-T-J1-PDC and 415267-285-R-J2-PDC, were cultured in Matrigel-coated flasks prepared with a working solution of 1X Ham's F-12 nutrient mix, without supplementation (Thermo Fisher Scientific, cat. 11765054), 100 U/mL penicillin-streptomycin (Thermo Fisher Scientific, cat. 15140122), and 2.5% Matrigel (Corning Inc., Corning, NY, cat. 354248) for the first three passages. The two PDC lines 997537-175-T-J1-PDC and 415267-285-R-J2-PDC were cultured on uncoated flasks. The 857933-349-R-J2-PDC line was cultured in 6C/Colon 1B media containing advanced DMEM/F-12 (Thermo Fisher Scientific, cat. 12634028), 10 mM HEPES (Thermo Fisher Scientific, cat. 15630080), 1X GlutaMAX supplement (Thermo Fisher Scientific, cat. 35050061), 0.1 mg/mL primocin (InvivoGen, San Diego, CA, cat. ant-pm-2), 10% defined fetal bovine serum, heat inactivated (HyClone Laboratories Inc., Logan, UT, cat. SH30070.03HI), 50% L-WRN conditioned media (ATCC, cat. CRL-3276), 1.25 mM N-Acetyl-L-cysteine (Sigma-Aldrich, cat. A9165), 10 mM nicotinamide (Sigma-Aldrich, cat. N0636), 1X B-27 supplement (Thermo Fisher Scientific, cat. 17504044), 1X N-2 supplement (Thermo Fisher Scientific, cat. […]
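Further: spheroids exposed to compounds for seven days before readout.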
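Wherever viability, T/C is given: 100% = DMSO vehicle control viability.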

O=C(Nc1ccc(O)c(NS(=O)(=O)c2ccc(F)cc2)c1)c1ccc(-c2ccccc2)cc1 + Cc1cccc(N(C)C(=O)C2C(O)CCN2c2nc(C)cc(C(F)(F)F)c2C#N)c1 was tested, and the IC50 (second compound 0.0316 µM) was greater than 10000 nM, the IC50 (second compound 0.1 µM) was greater than 10000 nM and the IC50 (second compound 0.316 µM) was greater than 10000 nM. The IC50 (second compound 1 µM) was greater than 10000 nM, the IC50 (second compound 3.16 µM) was greater than 10000 nM and the IC50 (second compound 10 µM) was greater than 10000 nM. For the same compound, the viability, T/C (second compound 0.0316 µM, first compound 0.0316 µM) was 96.5%, the viability, T/C (second compound 0.0316 µM, first compound 0.1 µM) was 90.4% and the viability, T/C (second compound 0.0316 µM, first compound 0.316 µM) was 86.6%. It also gave a viability, T/C (second compound 0.0316 µM, first compound 1 µM) of 91.7%, a viability, T/C (second compound 0.0316 µM, first compound 3.16 µM) of 81.9% and a viability, T/C (second compound 0.0316 µM, first compound 10 µM) of 65.5%. The viability, T/C (second compound 0.1 µM, first compound 0.0316 µM) was 98.6%, the viability, T/C (second compound 0.1 µM, first compound 0.1 µM) was 98% and the viability, T/C (second compound 0.1 µM, first compound 0.316 µM) was 96.5%. For the same compound, the viability, T/C (second compound 0.1 µM, first compound 1 µM) was 80%, the viability, T/C (second compound 0.1 µM, first compound 3.16 µM) was 79.3% and the viability, T/C (second compound 0.1 µM, first compound 10 µM) was 66.3%. It also gave a viability, T/C (second compound 0.316 µM, first compound 0.0316 µM) of 97.6%, a viability, T/C (second compound 0.316 µM, first compound 0.1 µM) of 103% and a viability, T/C (second compound 0.316 µM, first compound 0.316 µM) of 95.3%. For the same compound, the viability, T/C (second compound 0.316 µM, first compound 1 µM) was 93.1%, the viability, T/C (second compound 0.316 µM, first compound 3.16 µM) was 83.3% and the viability, T/C (second compound 0.316 µM, first compound 10 µM) was 68.2%. The viability, T/C (second compound 1 µM, first compound 0.0316 µM) was 97.9%, the viability, T/C (second compound 1 µM, first compound 0.1 µM) was 99.7% and the viability, T/C (second compound 1 µM, first compound 0.316 µM) was 99.1%. It also gave a viability, T/C (second compound 1 µM, first compound 1 µM) of 82.9%, a viability, T/C (second compound 1 µM, first compound 3.16 µM) of 88.3% and a viability, T/C (second compound 1 µM, first compound 10 µM) of 71.1%. For the same compound, the viability, T/C (second compound 3.16 µM, first compound 0.0316 µM) was 94.6%, the viability, T/C (second compound 3.16 µM, first compound 0.1 µM) was 103% and the viability, T/C (second compound 3.16 µM, first compound 0.316 µM) was 85.3%. It also gave a viability, T/C (second compound 3.16 µM, first compound 1 µM) of 105%, a viability, T/C (second compound 3.16 µM, first compound 3.16 µM) of 80.8% and a viability, T/C (second compound 3.16 µM, first compound 10 µM) of 75.4%. It also gave a viability, T/C (second compound 10 µM, first compound 0.0316 µM) of 105%, a viability, T/C (second compound 10 µM, first compound 0.1 µM) of 102% and a viability, T/C (second compound 10 µM, first compound 0.316 µM) of 94.2%. The viability, T/C (second compound 10 µM, first compound 1 µM) was 91%, the viability, T/C (second compound 10 µM, first compound 3.16 µM) was 81.5% and the viability, T/C (second compound 10 µM, first compound 10 µM) was 57.1%.
Work on CC(=O)O[C@H]1C(=O)[C@@]2(C)[C@H]([C@H](OC(=O)c3ccccc3)[C@]3(O)C[C@H](OC(=O)[C@H](O)[C@@H](NC(=O)c4ccccc4)c4ccccc4)C(C)=C1C3(C)C)[C@]1(OC(C)=O)CO[C@@H]1C[C@@H]2O + Nc1ccc(C#CCN(C(=O)Cc2ncc(C(F)(F)F)cc2C(F)(F)F)c2ccc(F)cc2)nn1 yielded an IC50 (second compound 0.0316 µM) of 11.9 nM, an IC50 (second compound 0.1 µM) of 10.5 nM and an IC50 (second compound 0.316 µM) of less than 9.49 nM. The IC50 (second compound 1 µM) was less than 9.49 nM, the IC50 (second compound 3.16 µM) was 10.4 nM and the IC50 (second compound 10 µM) was 11.6 nM. The viability, T/C (second compound 0.0316 µM, first compound 0.00949 µM) was 54.8%, the viability, T/C (second compound 0.0316 µM, first compound 0.03 µM) was 30.9% and the viability, T/C (second compound 0.0316 µM, first compound 0.0949 µM) was 24.9%. For the same compound, the viability, T/C (second compound 0.0316 µM, first compound 0.3 µM) was 22.9%, the viability, T/C (second compound 0.0316 µM, first compound 0.949 µM) was 25.1% and the viability, T/C (second compound 0.0316 µM, first compound 3 µM) was 22.2%. For the same compound, the viability, T/C (second compound 0.1 µM, first compound 0.00949 µM) was 52.2%, the viability, T/C (second compound 0.1 µM, first compound 0.03 µM) was 27.6% and the viability, T/C (second compound 0.1 µM, first compound 0.0949 µM) was 31.1%. The viability, T/C (second compound 0.1 µM, first compound 0.3 µM) was 17.8%, the viability, T/C (second compound 0.1 µM, first compound 0.949 µM) was 18.7% and the viability, T/C (second compound 0.1 µM, first compound 3 µM) was 24.2%. The viability, T/C (second compound 0.316 µM, first compound 0.00949 µM) was 51.6%, the viability, T/C (second compound 0.316 µM, first compound 0.03 µM) was 31.1% and the viability, T/C (second compound 0.316 µM, first compound 0.0949 µM) was 21.7%. The viability, T/C (second compound 0.316 µM, first compound 0.3 µM) was 24.8%, the viability, T/C (second compound 0.316 µM, first compound 0.949 µM) was 34.9% and the viability, T/C (second compound 0.316 µM, first compound 3 µM) was 36%. For the same compound, the viability, T/C (second compound 1 µM, first compound 0.00949 µM) was 49.1%, the viability, T/C (second compound 1 µM, first compound 0.03 µM) was 26.9% and the viability, T/C (second compound 1 µM, first compound 0.0949 µM) was 23.5%. It also gave a viability, T/C (second compound 1 µM, first compound 0.3 µM) of 20%, a viability, T/C (second compound 1 µM, first compound 0.949 µM) of 23% and a viability, T/C (second compound 1 µM, first compound 3 µM) of 31.8%. It also gave a viability, T/C (second compound 3.16 µM, first compound 0.00949 µM) of 50.5%, a viability, T/C (second compound 3.16 µM, first compound 0.03 µM) of 43.2% and a viability, T/C (second compound 3.16 µM, first compound 0.0949 µM) of 27.8%. For the same compound, the viability, T/C (second compound 3.16 µM, first compound 0.3 µM) was 28%, the viability, T/C (second compound 3.16 µM, first compound 0.949 µM) was 20.7% and the viability, T/C (second compound 3.16 µM, first compound 3 µM) was 23.5%. It also gave a viability, T/C (second compound 10 µM, first compound 0.00949 µM) of 53.8%, a viability, T/C (second compound 10 µM, first compound 0.03 µM) of 31.9% and a viability, T/C (second compound 10 µM, first compound 0.0949 µM) of 27.2%. It also gave a viability, T/C (second compound 10 µM, first compound 0.3 µM) of 26.5%, a viability, T/C (second compound 10 µM, first compound 0.949 µM) of 28% and a viability, T/C (second compound 10 µM, first compound 3 µM) of 24.6%.
